Experimental data taken from article PMC4913548 (OncoTargets and therapy, 2016).

Biological target: estrogen receptor α (Homo sapiens, UniProt P03372)
Assay: ERE-Luc/catD-Luc reporter assay in SH-SY5Y cells
Format: cell-based

estrogen receptor α, sequence (P03372 whole entry): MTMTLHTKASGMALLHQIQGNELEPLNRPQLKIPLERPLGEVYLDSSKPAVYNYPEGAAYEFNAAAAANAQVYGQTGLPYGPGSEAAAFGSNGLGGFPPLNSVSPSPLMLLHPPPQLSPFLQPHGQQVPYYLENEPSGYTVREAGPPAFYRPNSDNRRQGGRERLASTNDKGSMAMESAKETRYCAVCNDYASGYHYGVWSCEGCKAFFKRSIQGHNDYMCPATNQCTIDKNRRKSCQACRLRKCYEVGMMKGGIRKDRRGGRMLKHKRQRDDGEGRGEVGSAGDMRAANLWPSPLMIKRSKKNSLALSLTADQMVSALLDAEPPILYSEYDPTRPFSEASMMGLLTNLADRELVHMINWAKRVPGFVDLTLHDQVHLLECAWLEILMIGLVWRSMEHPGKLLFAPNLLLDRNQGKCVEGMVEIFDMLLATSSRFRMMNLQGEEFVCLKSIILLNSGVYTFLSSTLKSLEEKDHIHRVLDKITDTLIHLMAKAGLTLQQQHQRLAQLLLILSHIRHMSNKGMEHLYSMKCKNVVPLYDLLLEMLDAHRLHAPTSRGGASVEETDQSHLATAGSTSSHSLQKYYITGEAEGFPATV

nonylphenol
EC50: 0.58 ± 0.25 µM
